Measurements reported in ChEMBL document CHEMBL3352585, “2013 Philip S. Portoghese Medicinal Chemistry Lectureship: drug discovery targeting allosteric sites” (J Med Chem, 2014).

Key:
[1] = molecular target: T1, Muscarinic acetylcholine receptor M5 (Homo sapiens, UniProt P08912); assay: Allosteric agonist activity at human muscarinic acetylcholine receptor M5
T1 sequence (P08912 whole entry): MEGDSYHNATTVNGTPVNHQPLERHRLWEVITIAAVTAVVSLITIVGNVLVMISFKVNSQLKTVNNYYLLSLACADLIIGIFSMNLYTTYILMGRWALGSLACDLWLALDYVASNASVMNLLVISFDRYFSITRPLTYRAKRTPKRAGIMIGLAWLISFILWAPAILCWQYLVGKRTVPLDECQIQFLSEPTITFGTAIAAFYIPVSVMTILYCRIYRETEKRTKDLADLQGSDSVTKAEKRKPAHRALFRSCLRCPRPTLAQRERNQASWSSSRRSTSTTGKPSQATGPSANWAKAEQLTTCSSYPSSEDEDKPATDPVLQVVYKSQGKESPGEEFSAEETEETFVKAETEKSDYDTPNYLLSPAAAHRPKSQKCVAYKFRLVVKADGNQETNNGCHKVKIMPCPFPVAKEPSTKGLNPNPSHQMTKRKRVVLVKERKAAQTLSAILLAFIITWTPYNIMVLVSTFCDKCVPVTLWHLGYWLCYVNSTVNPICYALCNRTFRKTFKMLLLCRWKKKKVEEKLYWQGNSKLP

[2] = molecular target: T1, Muscarinic acetylcholine receptor M5; assay: Negative allosteric modulator activity at human muscarinic acetylcholine receptor M5 expressed in CHO cells by fluorometric imaging plate reader; type: cell-based
[3] = molecular target: T1, Muscarinic acetylcholine receptor M5; assay: Silent allosteric modulator activity at human muscarinic acetylcholine receptor M5 expressed in CHO cells by fluorometric imaging plate reader; type: cell-based
[4] = molecular target: T1, Muscarinic acetylcholine receptor M5; assay: Positive allosteric modulator activity at human muscarinic acetylcholine receptor M5 expressed in CHO cells by fluorometric imaging plate reader; type: cell-based
[5] = molecular target: T2, Serine/threonine-protein kinase Sgk1 (Homo sapiens, UniProt O00141); assay: Inhibition of SGK (unknown origin)
T2 sequence (O00141 whole entry): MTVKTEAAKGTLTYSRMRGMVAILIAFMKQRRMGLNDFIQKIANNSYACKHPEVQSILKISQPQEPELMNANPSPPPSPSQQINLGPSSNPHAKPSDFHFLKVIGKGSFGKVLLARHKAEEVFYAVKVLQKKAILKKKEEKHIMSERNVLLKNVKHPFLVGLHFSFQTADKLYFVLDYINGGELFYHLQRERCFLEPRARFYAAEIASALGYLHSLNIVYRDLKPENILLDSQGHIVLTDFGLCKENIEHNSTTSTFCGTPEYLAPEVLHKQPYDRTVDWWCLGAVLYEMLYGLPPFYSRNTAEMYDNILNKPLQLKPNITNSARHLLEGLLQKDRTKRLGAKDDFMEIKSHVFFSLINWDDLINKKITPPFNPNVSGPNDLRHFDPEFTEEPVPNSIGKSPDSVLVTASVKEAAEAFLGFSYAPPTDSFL

[6] = Inhibition of PKA (unknown origin); set-up: species or system Homo sapiens
Protein kinase C (PKC) = assay: Inhibition of PKC (unknown origin); set-up: species or system Homo sapiens

`O=C(N[C@H]1C[C@H](O)C1)c1ccc(C#Cc2cccc(F)c2)cn1` showed an EC50 [1] of 0.4 µM.

`COc1cccc(/C=N/N=C/c2cccc(OC)c2)c1` gave an EC50 [2] of 3 µM.

For `Clc1cccc(/C=N/N=C/c2cccc(Cl)c2)c1`, the EC50 [3] was 7.6 µM.

Work on `O=C(N[C@H]1C[C@@H](O)C1)c1ccc(C#Cc2cccc(F)c2)cn1` yielded an EC50 [4] of 0.033 µM.

With `CC(C)(N)c1ccc(-c2nc3ccccc3nc2-c2ccccc2)cc1` the IC50 [5] was > 250 µM, the IC50 [6] was > 250 µM and the IC50 (Protein kinase C (PKC)) was > 250 µM.

Molecule `Fc1cccc(/C=N/N=C/c2cccc(F)c2)c1` has an EC50 [4] of 2.6 µM.
